Source: PubChem BioAssay AID248 (DTP/NCI, 2004)
“And” between values parts separate entries of the source, which are not always exact repeats. Equal values may be shown once. Inconclusive results and toxic doses are left out.

System: L1210 leukemia ip in BDF1 mice, survival T/C
Assay: NCI In Vivo Anticancer Drug Screen. Data for tumor model L1210 Leukemia (intraperitoneal) in B6D2F1 (BDF1) mice
Settings: endpoint: mean survival time, higher = longer survival
Method in brief: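 In this screen, tumor-bearing mice given compound are compared to those given vehicle, and their survival values are reported as a treated-to-control quotient.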

[1] = dose: 100.0 mg/kg/injection, schedule: Q04DX003 (ip), vehicle: Klucel (hydroxypropylcellulose) (HPC)
[2] = dose: 200.0 mg/kg/injection, schedule: Q04DX003 (ip), vehicle: Klucel (hydroxypropylcellulose) (HPC)
[3] = dose: 400.0 mg/kg/injection, schedule: Q04DX003 (ip), vehicle: Klucel (hydroxypropylcellulose) (HPC)
[4] = dose: 100.0 mg/kg/injection, schedule: Q01DX009 (ip), vehicle: Klucel (hydroxypropylcellulose) (HPC)
[5] = dose: 100.0 mg/kg/injection, schedule: Q01DX009 (ip), vehicle: saline
[6] = dose: 200.0 mg/kg/injection, schedule: Q01DX009 (ip), vehicle: Klucel (hydroxypropylcellulose) (HPC)
[7] = dose: 200.0 mg/kg/injection, schedule: Q01DX009 (ip), vehicle: saline
[8] = dose: 400.0 mg/kg/injection, schedule: Q01DX009 (ip), vehicle: Klucel (hydroxypropylcellulose) (HPC)
[9] = dose: 100.0 mg/kg/injection, schedule: Q01DX009 (ip), vehicle: saline with Tween-80
[10] = dose: 200.0 mg/kg/injection, schedule: Q01DX009 (ip), vehicle: saline with Tween-80
[11] = dose: 20.0 mg/kg/injection, schedule: Q01DX009 (ip), vehicle: Klucel (hydroxypropylcellulose) (HPC)
[12] = dose: 50.0 mg/kg/injection, schedule: Q04DX003 (ip), vehicle: Klucel (hydroxypropylcellulose) (HPC)
[13] = dose: 100.0 mg/kg/injection, schedule: Q04DX003 (ip), vehicle: saline
[14] = dose: 200.0 mg/kg/injection, schedule: Q04DX003 (ip), vehicle: saline

SMILES: O=C(O)/C=C(\F)C(=O)O
- T/C (dose: 50.0 mg/kg/injection, schedule: Q01DX005 (ip), vehicle: water): 109 % of control and 91 % of control
- T/C (dose: 100.0 mg/kg/injection, schedule: Q01DX005 (ip), vehicle: water): 96 % of control and 98 % of control
- T/C (dose: 200.0 mg/kg/injection, schedule: Q01DX005 (ip), vehicle: water): 107 % of control and 105 % of control

SMILES: Cc1ccc(NC(=O)OCCOc2ccc(Br)cc2)cc1[N+](=O)[O-]
- T/C [1]: 94 % of control
- T/C [2]: 90 % of control
- T/C [3]: 94 % of control

SMILES: Cn1cnc2c1c(=O)[nH]c(=O)n2C
- T/C [4]: 93 % of control
- T/C [5]: 95 % of control
- T/C [6]: 86 % of control
- T/C [7]: 92 % of control
- T/C [8]: 89 % of control

SMILES: CCOC(=O)C1N=C(c2ccccc2)OC1c1ccccc1 (stereo unspecified)
- T/C (dose: 50.0 mg/kg/injection, schedule: Q01DX009 (ip), vehicle: saline with Tween-80): 94 % of control
- T/C [9]: 94 % of control
- T/C [10]: 102 % of control

SMILES: O=C1C=C(N2CC2)c2ccccc2C1=O
- T/C (dose: 2.5 mg/kg/injection, schedule: Q01DX009 (ip), vehicle: Klucel (hydroxypropylcellulose) (HPC)): 101 % of control
- T/C (dose: 2.5 mg/kg/injection, schedule: Q04DX003 (ip), vehicle: Klucel (hydroxypropylcellulose) (HPC)): 104 % of control
- T/C (dose: 5.0 mg/kg/injection, schedule: Q01DX009 (ip), vehicle: Klucel (hydroxypropylcellulose) (HPC)): 96 % of control
- T/C (dose: 5.0 mg/kg/injection, schedule: Q04DX003 (ip), vehicle: Klucel (hydroxypropylcellulose) (HPC)): 104 % of control
- T/C (dose: 10.0 mg/kg/injection, schedule: Q01DX009 (ip), vehicle: Klucel (hydroxypropylcellulose) (HPC)): 100 % of control
- T/C (dose: 10.0 mg/kg/injection, schedule: Q04DX003 (ip), vehicle: Klucel (hydroxypropylcellulose) (HPC)): 102 % of control
- T/C (dose: 20.0 mg/kg/injection, schedule: Q01DX001 (ip), vehicle: Klucel (hydroxypropylcellulose) (HPC)): 105 % of control
- T/C [11]: 104 % of control
- T/C (dose: 20.0 mg/kg/injection, schedule: Q04DX003 (ip), vehicle: Klucel (hydroxypropylcellulose) (HPC)): 109 % of control

SMILES: NCCc1cc2c3c(c1)CCCN3CCC2
- T/C (dose: 0.78 mg/kg/injection, schedule: Q01DX009 (ip), vehicle: saline): 95 % of control
- T/C (dose: 1.56 mg/kg/injection, schedule: Q01DX009 (ip), vehicle: saline): 102 % of control
- T/C (dose: 3.12 mg/kg/injection, schedule: Q01DX009 (ip), vehicle: saline): 91 % of control
- T/C (dose: 6.25 mg/kg/injection, schedule: Q01DX009 (ip), vehicle: saline): 97 % of control
- T/C (dose: 12.5 mg/kg/injection, schedule: Q01DX001 (ip), vehicle: saline): 100 % of control
- T/C (dose: 25.0 mg/kg/injection, schedule: Q01DX001 (ip), vehicle: saline): 94 % of control

SMILES: O=c1cc(Nc2ccc(Cl)cc2)[nH]c(=O)[nH]1
- T/C (dose: 100.0 mg/kg/injection, schedule: Q01DX001 (ip), vehicle: gum acacia): 101 % of control
- T/C (dose: 400.0 mg/kg/injection, schedule: Q01DX001 (ip), vehicle: gum acacia): 101 % of control

SMILES: CS(=N)(=O)CC(N)C(=O)O (stereo unspecified)
- T/C [5]: 95 % of control
- T/C [7]: 114 % of control
- T/C (dose: 400.0 mg/kg/injection, schedule: Q01DX009 (ip), vehicle: saline): 95 % of control

SMILES: CC(=O)Oc1cc(OC(C)=O)c(Oc2cc(OC(C)=O)c(Oc3cc(OC(C)=O)c(OC(C)=O)c(OC(C)=O)c3)c(OC(C)=O)c2)c(OC(C)=O)c1
- T/C (dose: 50.0 mg/kg/injection, schedule: Q04DX003 (ip), vehicle: saline with Tween-80): 97 % of control
- T/C (dose: 100.0 mg/kg/injection, schedule: Q04DX003 (ip), vehicle: saline with Tween-80): 95 % of control
- T/C (dose: 200.0 mg/kg/injection, schedule: Q04DX003 (ip), vehicle: saline with Tween-80): 95 % of control

SMILES: CS(=O)(=O)OCCN(CCOS(C)(=O)=O)c1ccc(C=Nc2ccc(-c3csc(-c4ccc(Br)cc4)n3)cc2)c(Cl)c1
- T/C [12]: 107 % of control
- T/C [1]: 112 % of control and 115 % of control
- T/C [2]: 114 % of control and 118 % of control
- T/C [3]: 123 % of control

SMILES: CC[P+]1(c2ccccc2)CCCc2ccc3ccccc3c21 (stereo unspecified)
- T/C (dose: 6.25 mg/kg/injection, schedule: Q01DX009 (ip), vehicle: saline with Tween-80): 117 % of control

SMILES: CCOC(=O)C(C(=O)OCC)C(C)(C)Cc1ccccc1
- T/C [4]: 92 % of control
- T/C [6]: 100 % of control
- T/C [2]: 96 % of control
- T/C [8]: 93 % of control
- T/C [3]: 93 % of control

SMILES: NC1=NC(=O)CS1
- T/C (dose: 100.0 mg/kg/injection, schedule: Q01DX001 (ip), vehicle: saline with Tween-80): 92 % of control
- T/C [9]: 105 % of control
- T/C [13]: 86 % of control
- T/C (dose: 200.0 mg/kg/injection, schedule: Q01DX001 (ip), vehicle: saline with Tween-80): 103 % of control
- T/C [10]: 107 % of control
- T/C [14]: 93 % of control
- T/C (dose: 400.0 mg/kg/injection, schedule: Q01DX001 (ip), vehicle: saline with Tween-80): 95 % of control
- T/C (dose: 400.0 mg/kg/injection, schedule: Q01DX009 (ip), vehicle: saline with Tween-80): 105 % of control
- T/C (dose: 400.0 mg/kg/injection, schedule: Q04DX003 (ip), vehicle: saline): 86 % of control

SMILES: CS(=O)c1cc2c(cc1[N+](=O)[O-])C(=O)c1ccccc1-2 (stereo unspecified)
- T/C [11]: 107 % of control
- T/C (dose: 40.0 mg/kg/injection, schedule: Q01DX009 (ip), vehicle: Klucel (hydroxypropylcellulose) (HPC)): 117 % of control
- T/C [12]: 97 % of control
- T/C [4]: 95 % of control
- T/C [1]: 93 % of control

SMILES: C=CCc1cc(CN(CCO)Cc2cc(CC=C)cc(OC)c2O)c(O)c(OC)c1
- T/C (dose: 12.5 mg/kg/injection, schedule: Q04DX003 (ip), vehicle: Klucel (hydroxypropylcellulose) (HPC)): 95 % of control
- T/C (dose: 25.0 mg/kg/injection, schedule: Q04DX003 (ip), vehicle: Klucel (hydroxypropylcellulose) (HPC)): 101 % of control
- T/C [12]: 95 % of control

SMILES: O=S1(=O)C2CCCC1C(Cl)CC2 (stereo unspecified)
- T/C (dose: 15.0 mg/kg/injection, schedule: Q01DX001 (ip), vehicle: carboxymethylcellulose (CMC)): 100 % of control

SMILES: Cc1cccc(Br)[n+]1[O-]
- T/C (dose: 50.0 mg/kg/injection, schedule: Q01DX009 (ip), vehicle: saline): 110 % of control
- T/C [5]: 112 % of control
- T/C [13]: 102 % of control
- T/C [14]: 97 % of control

SMILES: CCCOC(=O)c1ccc(O)cc1
- T/C [4]: 87 % of control
- T/C [6]: 94 % of control
- T/C [8]: 102 % of control

SMILES: O=NN(CCCl)C(=O)NC1CCCCCCCCCCC1
- T/C (dose: 2.5 mg/kg/injection, schedule: Q01DX001 (ip), vehicle: carboxymethylcellulose (CMC)): 114 % of control
- T/C (dose: 5.0 mg/kg/injection, schedule: Q01DX001 (ip), vehicle: carboxymethylcellulose (CMC)): 120 % of control
- T/C (dose: 8.0 mg/kg/injection, schedule: Q01DX001 (ip), vehicle: carboxymethylcellulose (CMC)): 123 % of control
- T/C (dose: 12.0 mg/kg/injection, schedule: Q01DX001 (ip), vehicle: carboxymethylcellulose (CMC)): 121 % of control
- T/C (dose: 187.0 mg/kg/injection, schedule: Q01DX001 (ip), vehicle: carboxymethylcellulose (CMC)): 166 % of control
- T/C (dose: 250.0 mg/kg/injection, schedule: Q01DX001 (ip), vehicle: carboxymethylcellulose (CMC)): 153 % of control
- T/C (dose: 375.0 mg/kg/injection, schedule: Q01DX001 (ip), vehicle: carboxymethylcellulose (CMC)): 160 % of control
- T/C (dose: 500.0 mg/kg/injection, schedule: Q01DX001 (ip), vehicle: carboxymethylcellulose (CMC)): 174 % of control
- T/C (dose: 555.0 mg/kg/injection, schedule: Q01DX001 (ip), vehicle: other): 172 % of control
- T/C (dose: 596.0 mg/kg/injection, schedule: Q01DX001 (ip), vehicle: other): 155 % of control
- T/C (dose: 750.0 mg/kg/injection, schedule: Q01DX001 (ip), vehicle: carboxymethylcellulose (CMC)): 233 % of control
- T/C (dose: 838.0 mg/kg/injection, schedule: Q01DX001 (ip), vehicle: other): 221 % of control
- T/C (dose: 1000.0 mg/kg/injection, schedule: Q01DX001 (ip), vehicle: carboxymethylcellulose (CMC)): 247 % of control
- T/C (dose: 1192.0 mg/kg/injection, schedule: Q01DX001 (ip), vehicle: other): 185 % of control
- T/C (dose: 1250.0 mg/kg/injection, schedule: Q01DX001 (ip), vehicle: other): 274 % of control
- T/C (dose: 1500.0 mg/kg/injection, schedule: Q01DX001 (ip), vehicle: other): 167 % of control
- T/C (dose: 1875.0 mg/kg/injection, schedule: Q01DX001 (ip), vehicle: other): 261 % of control
- T/C (dose: 2000.0 mg/kg/injection, schedule: Q01DX001 (ip), vehicle: other): 91 % of control
- T/C (dose: 2384.0 mg/kg/injection, schedule: Q01DX001 (ip), vehicle: other): 178 % of control
